Read-outs that look alike come from different tables or passages of the source.
Legend:
[1] = test system: weeds (ABUTH, AMATA, AMBEL, CHEAL, ERICA); assay: Postemergence herbicide evaluation, overall average % weed control across ABUTH, AMATA, AMBEL, CHEAL, ERICA; type: in vivo; conditions: post-emergence, average over the five weeds, read-out: Overall Ave % Weed Control; for pest or weed control at 280 g/ha: 280 g ae/ha; for pest or weed control at 560 g/ha: 560 g ae/ha
[2] = test system: Glycine max (Enlist E3 traited soybeans, GLXMA); conditions: Enlist E3 soybeans, percent reduction in plant size relative to untreated control
[3] = test system: Abutilon theophrasti (ABUTH), velvetleaf; assay: Postemergence herbicide evaluation, growth of Abutilon theophrasti (ABUTH); type: in vivo; conditions: Abutilon theophrasti, post-emergence, percent reduction in plant size relative to untreated control, read-out: AVE. ABUTH; for pest or weed control at 280 g/ha: 280 g ae/ha; for pest or weed control at 560 g/ha: 560 g ae/ha
[4] = test system: glyphosate resistant Conyza canadensis (L.) (ERICA), horseweed; assay: Postemergence herbicide evaluation, growth of Conyza canadensis (ERICA); type: in vivo; conditions: Erigeron canadensis, post-emergence, percent reduction in plant size relative to untreated control, read-out: Ave. ERICA; for pest or weed control at 280 g/ha: 280 g ae/ha; for pest or weed control at 560 g/ha: 560 g ae/ha
[5] = test system: Amaranthus rudis (AMATA), tall water hemp; assay: Postemergence herbicide evaluation, growth of Amaranthus rudis (AMATA); type: in vivo; conditions: Amaranthus tuberculatus, post-emergence, percent reduction in plant size relative to untreated control, read-out: Ave. AMATA; for pest or weed control at 280 g/ha: 280 g ae/ha; for pest or weed control at 560 g/ha: 560 g ae/ha
[6] = test system: Ambrosia artemisiifolia (AMBEL), common ragweed; assay: Postemergence herbicide evaluation, growth of Ambrosia artemisiifolia (AMBEL); type: in vivo; conditions: Ambrosia artemisiifolia, post-emergence, percent reduction in plant size relative to untreated control, read-out: AVE. AMBEL; for pest or weed control at 280 g/ha: 280 g ae/ha; for pest or weed control at 560 g/ha: 560 g ae/ha
[7] = Volatility of compounds measured by thermogravimetric analysis (TGA); type: physicochemical
[8] = test system: Chenopodium album (CHEAL), common lambsquarters; assay: Postemergence herbicide evaluation, growth of Chenopodium album (CHEAL); type: in vivo; conditions: Chenopodium album, post-emergence, percent reduction in plant size relative to untreated control, read-out: Ave. CHEAL; for pest or weed control at 280 g/ha: 280 g ae/ha; for pest or weed control at 560 g/ha: 560 g ae/ha

Question: Which results are given for `Cc1ccc(S(=O)(=O)NC(=O)COc2ccc(Cl)cc2Cl)cc1` [Compound D5]?
Answer: pest or weed control at 280 g/ha ([1]; 168 h, 7 DAA): 56%; pest or weed control at 560 g/ha ([1]; 168 h, 7 DAA): 61%; pest or weed control at 280 g/ha ([1]; 336 h, 14 DAA): 63%; pest or weed control at 560 g/ha ([1]; 336 h, 14 DAA): 70%; pest or weed control at 280 g/ha ([1]; 504 h, 21 DAA): 59%; pest or weed control at 560 g/ha ([1]; 504 h, 21 DAA): 63%; AVE. GLXMA ([2]; 280 g ae/ha, 7 DAA): 4%; AVE. GLXMA ([2]; 280 g ae/ha, 14 DAA): 2%; AVE. GLXMA ([2]; 280 g ae/ha, 21 DAA): 3%; AVE. GLXMA ([2]; 560 g ae/ha, 7 DAA): 9%; AVE. GLXMA ([2]; 560 g ae/ha, 14 DAA): 5%; AVE. GLXMA ([2]; 560 g ae/ha, 21 DAA): 5%; pest or weed control at 280 g/ha ([3]; 168 h, 7 DAA): 30%; pest or weed control at 560 g/ha ([3]; 168 h, 7 DAA): 40%; pest or weed control at 280 g/ha ([3]; 336 h, 14 DAA): 23%; pest or weed control at 560 g/ha ([3]; 336 h, 14 DAA): 35%; pest or weed control at 280 g/ha ([3]; 504 h, 21 DAA): 25%; pest or weed control at 560 g/ha ([3]; 504 h, 21 DAA): 25%; pest or weed control at 280 g/ha ([4]; 168 h, 7 DAA): 63%; pest or weed control at 560 g/ha ([4]; 168 h, 7 DAA): 53%; pest or weed control at 280 g/ha ([4]; 336 h, 14 DAA): 78%; pest or weed control at 560 g/ha ([4]; 336 h, 14 DAA): 75%; pest or weed control at 280 g/ha ([4]; 504 h, 21 DAA): 73%; pest or weed control at 560 g/ha ([4]; 504 h, 21 DAA): 68%; pest or weed control at 280 g/ha ([5]; 168 h, 7 DAA): 73%; pest or weed control at 560 g/ha ([5]; 168 h, 7 DAA): 73%; pest or weed control at 280 g/ha ([5]; 336 h, 14 DAA): 78%; pest or weed control at 560 g/ha ([5]; 336 h, 14 DAA): 75%; pest or weed control at 280 g/ha ([5]; 504 h, 21 DAA): 75%; pest or weed control at 560 g/ha ([5]; 504 h, 21 DAA): 73%; pest or weed control at 280 g/ha ([6]; 168 h, 7 DAA): 48%; pest or weed control at 560 g/ha ([6]; 168 h, 7 DAA): 65%; pest or weed control at 280 g/ha ([6]; 336 h, 14 DAA): 68%; pest or weed control at 560 g/ha ([6]; 336 h, 14 DAA): 90%; pest or weed control at 280 g/ha ([6]; 504 h, 21 DAA): 58%; pest or weed control at 560 g/ha ([6]; 504 h, 21 DAA): 85%; TGA Data (rate of weight loss, volatility) [7]: 0.02 µg/min; pest or weed control at 280 g/ha ([8]; 168 h, 7 DAA): 65%; pest or weed control at 560 g/ha ([8]; 168 h, 7 DAA): 73%; pest or weed control at 280 g/ha ([8]; 336 h, 14 DAA): 70%; pest or weed control at 560 g/ha ([8]; 336 h, 14 DAA): 73%; pest or weed control at 280 g/ha ([8]; 504 h, 21 DAA): 65%; pest or weed control at 560 g/ha ([8]; 504 h, 21 DAA): 68%
